Experiments:
[1] = system: SF767 human brain cancer cells; assay: Tumour volume in nude mice infected with SF767 human brain cancer cells; assay type: in vivo; conditions: 600 mg/kg daily for 50 days; for volume of tumours (percent compared to control): p<0.001 vs control
Procedure: FIG. 6A. Effect of different salts of OHOD on human lung cancer in an animal cancer model. The volume of tumours in nude mice infected with SF767 human brain cancer cells (expressed as a percent compared to control) receiving various treatments. The animals received a vehicle (water: Control), 600 mg/kg of OHOD in the form of free fatty acid (OHOD), 600 mg/kg of sodium salt of OHOD (Na-OHOD) or 600 mg/kg of ammonium salt of OHOD (NH3OHOD) daily for 50 days.
FIG. 6B. Effect of different salts of OHOD on human lung cancer in an animal cancer model. The effect of different doses of sodium salt of OHOD (Na-OHOD) are shown on tumour volumes in mice infected with SF767 cells and treated with vehicle (control, 0 mg/kg), 100 mg/kg (100), 200 mg/kg (200), 400 mg/kg (400) and 600 mg/kg (600) for 50 days. * p<0.05; ***p<0.001.
One important characteristic of the molecules covered in the present invention is that they can form various types of salts. FIG. 6A and Table 5 show the therapeutic effects of various α-derivatives of cis-monounsaturated fatty acids and their salts. […] The specificity of this effect is determined by the relation between the dose and the effect these molecules have on the volume of human tumours implanted in animals (FIG. 6B).

[2] = biological target: T1, cyclooxygenases-1 (COX-1) (Homo sapiens, UniProt P23219); assay: COX-1 activity in U937 differentiated monocytes (Cayman COX-1 inhibitor screening system); assay type: cell-based; conditions: 250 μM, 6 hours; compared with fatty acids not of Formula I, p<0.05
T1 construct: endogenous in cells; host or cells: U937 differentiated monocytes
Procedure: FIG. 19A. Effect of various fatty acids in the inhibition of the activity of cyclooxygenases-1 (COX-1) (Cayman COX-1 inhibitor screening system). […] Cell cultures (U937 differentiated monocytes) were treated with the fatty acids of the invention (250 μM, 6 hours).
(§1) In an additional study on the release of various proinflammatory cytokines (IL-1b, IL-6, IL-8, IL-10) and TNF-α in U937 monocytes stimulated with bacterial lipopolysaccharide (LPS), a marked reduction in the levels of these molecules was observed after treatments with OHHD at a concentration of 250 μM and 72 h incubation (Table 4). The effect of the α-derivatives of cis-monounsaturated fatty acids (250 μM, 6 h) on the activity and expression of the COX-1 and COX-2 cyclooxygenases was investigated in the same system.

[3] = Rat obesity induced by cafeteria diet, preventative pre-treatment (Table 3); assay type: in vivo, Wistar Kyoto rats; conditions: 300 mg/kg oral, after two weeks on cafeteria diet; obese control 308 ± 17, lean control 280 ± 16; * lower than obese controls, ‡ indistinguishable
In short: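 Groups of 6 female Wistar Kyoto rats (250-300 g) received oral pre-treatment with 300 mg/kg fatty acid or vehicle during 2 weeks on standard diet. Dosing continued for two further weeks on cafeteria diet, with lean and obese vehicle controls. Body-weight gain was the read-out.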

[4] = system: cyclooxygenase-2 (COX-2); assay: Cellular concentration of COX-2 in U937 differentiated monocytes (immunoblot); assay type: cell-based, human; conditions: 250 μM, 6 hours; compared with fatty acids not of Formula I, p<0.05
Procedure: FIG. 19B. Effect of various fatty acids in the inhibition (concentration of protein) of cyclooxygenase-2 (immunoblot of COX-2). […] Cell cultures (U937 differentiated monocytes) were treated with the fatty acids of the invention (250 μM, 6 hours).
as §1

[5] = system: A549 cells of human lung adenocarcinoma; assay: Prevention of tumour development in nude mice injected with A549 cells; assay type: in vivo; conditions: 400 mg/kg per day oral, 2 weeks before and one month after A549 injection, compared with fatty acids not of Formula I, p<0.05
Text: FIG. 2. Preventative effect of various fatty acids against tumour development. […] Animals received treatment before injection of tumour cells and the treatment was subsequently maintained. Animals of the control group were not treated and the volume of their tumours was taken as the reference value (100%).
To determine whether the fatty acids of the invention have applications in the prevention of the development of tumour processes, an animal cancer model was used. This model consisted of immune-deprived animals ([Crl:Nu(Ico)-Fox 1] nude mice in which non-microcytic human lung cancer cells were injected (5×10^6 A549 cells per animal). The control group (infected with cancer cells but untreated) started to develop tumours that were visible after a few days. The sizes of the tumours were measured for the first time at 10 days after implanting the tumour and measurements continued for up to 31 days after the implantation with a digital calliper. The volume of the tumours was calculated with the following equation: v=w^2×l/2 where v is the volume of the tumour, w is its width and l is the length. Preventative treatments against development of the cancer were applied. To carry out these treatments, 400 mg/kg were administered per day for 2 weeks before the injection of tumour cells. This treatment was continued for one month after the implantation of the tumour cells and the volume of the tumours in the animals was measured. Each experimental group was composed of 8 animals. Oral administration of α-derivatives of cis-monounsaturated fatty acids prevented cancer development (A549 cells of human lung adenocarcinoma) (FIG. 2). […] Therefore it was concluded that the introduction of a double bond in the cis configuration in the structure of the fatty acid is a critical factor in the prevention and treatment by fatty acids of cancer development.

T1 sequence (P23219 24-599): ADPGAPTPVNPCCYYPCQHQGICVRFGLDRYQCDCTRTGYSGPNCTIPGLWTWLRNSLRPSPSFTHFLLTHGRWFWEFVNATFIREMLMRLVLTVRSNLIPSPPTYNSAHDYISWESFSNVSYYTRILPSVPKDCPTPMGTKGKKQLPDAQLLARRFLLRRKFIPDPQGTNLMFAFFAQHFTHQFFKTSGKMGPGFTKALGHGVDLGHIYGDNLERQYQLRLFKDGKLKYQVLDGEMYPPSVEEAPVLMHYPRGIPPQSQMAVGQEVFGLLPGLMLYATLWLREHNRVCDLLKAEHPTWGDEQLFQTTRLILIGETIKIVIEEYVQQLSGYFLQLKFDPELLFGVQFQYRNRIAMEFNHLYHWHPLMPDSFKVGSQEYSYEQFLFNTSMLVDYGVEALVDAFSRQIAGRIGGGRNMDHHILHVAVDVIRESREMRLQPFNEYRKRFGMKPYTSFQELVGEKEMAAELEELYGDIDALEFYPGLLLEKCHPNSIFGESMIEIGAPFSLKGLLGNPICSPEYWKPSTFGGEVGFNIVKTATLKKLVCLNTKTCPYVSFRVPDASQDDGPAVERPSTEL

Structure (SMILES): CCCCCCCC/C=C\CCCCCCC(O)C(=O)[O-].[Na+] (centres unmarked) [Na-OHOD]
- volume of tumours (percent compared to control) [1]: significant reductions in the size of tumours
- potency on tumour volume compared with the free fatty acid OHOD ([1]; p<0.05): significantly more potent

Structure (SMILES): CCCCCCCC/C=C\CCCCCCC(OC)C(=O)O (stereo not drawn) [MOOD, α-Methoxy-cis-Δ9-octadecenoic]
- inhibition of COX-1 activity (% of control) [2]: more significant effect
- Final weight [3]: 263 ± 22* g
- cellular concentration of COX-2 (% of control) [4]: more significant effect
- tumour volume (prevention of tumour development) [5]: more significant effect

Structure (SMILES): CCCCCCCC/C=C\CCCCCCC(O)C(=O)O (stereo not drawn) [OHOD, α-Hydroxy-cis-Δ9-octadecenoic]
- inhibition of COX-1 activity (% of control) [2]: more significant effect
- Final weight [3]: 284 ± 13* g
- volume of tumours (percent compared to control) [1]: significant reductions in the size of tumours
- cellular concentration of COX-2 (% of control) [4]: more significant effect
- tumour volume (prevention of tumour development) [5]: more significant effect

— patent publication US9730906B2, “α-derivatives of cis-monounsaturated fatty acids for use as medicines” (UNIVERSITAT DE LES ILLES BALEARS, priority 2008, dated 2017)
